# pIC50, pKi: −log10 of the molar value.
# Tested on: not listed separately
# Experiment: in vivo
# Details: rat
row,Compound,Vd [L/kg]
1,COc1cc(C(=O)NC[C@@H](O)CN2CCC(Oc3ccc(Cl)c(Cl)c3)CC2)ccc1N,25
2,CS(=O)(=O)c1ccccc1C(=O)NCC(O)CNC1CCN(Cc2ccc(Cl)c(Cl)c2)CC1 (centres undefined),9

# Target: T1, C-C chemokine receptor type 3 (Homo sapiens) (UniProt P51677)
# T1 sequence (whole entry): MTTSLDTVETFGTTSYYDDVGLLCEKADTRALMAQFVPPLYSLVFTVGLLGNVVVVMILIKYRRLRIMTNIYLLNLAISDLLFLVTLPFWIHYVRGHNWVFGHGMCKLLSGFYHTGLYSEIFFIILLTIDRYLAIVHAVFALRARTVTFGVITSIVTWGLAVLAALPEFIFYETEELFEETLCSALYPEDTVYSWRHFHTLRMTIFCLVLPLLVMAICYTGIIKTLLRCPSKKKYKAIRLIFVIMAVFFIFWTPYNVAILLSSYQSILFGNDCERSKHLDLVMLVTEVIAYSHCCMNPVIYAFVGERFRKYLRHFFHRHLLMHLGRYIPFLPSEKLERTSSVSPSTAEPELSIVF
# Experiment: Displacement of [3H]-4-(2,4-dichloro-3-methylphenoxy)-l'-[4- (methylsulfonyl)benzoyl]-l,4'-bipiperidine from human recombinant CCR3 expressed in CHOK1 cells at 1 uM after 2 hrs by scintillation counting analysis
# Format: cell-based
# Details: CHO-K1
row,Compound,inhibition [%]
1,CS(=O)(=O)c1ccccc1C(=O)NC[C@@H](O)CN1CCC(Oc2ccc(Cl)c(Cl)c2)CC1,> 70
2,O=C(NC[C@@H](O)CN1CCC(Oc2ccc(Cl)c(Cl)c2)CC1)c1n[nH]c2ccccc12,> 70
3,N#Cc1cccc(C(=O)NC[C@@H](O)CN2CCC(Oc3ccc(Cl)c(Cl)c3)CC2)c1,> 70
4,O=C(NC[C@@H](O)CN1CCC(Oc2ccc(Cl)c(Cl)c2)CC1)c1cn2cc(F)ccc2n1,> 70
5,N#Cc1cccc(OCCCN2CCC(Oc3ccc(Cl)c(Cl)c3)CC2)c1,> 70
6,O=C(NC[C@@H](O)CN1CCC(Oc2ccc(Cl)c(Cl)c2)CC1)n1c(=O)[nH]c2ccccc21,> 70
7,CN(C[C@@H](O)CN1CCC(Oc2ccc(Cl)c(Cl)c2)CC1)C(=O)c1c[nH]c(=O)c2ccccc12,> 70
8,CS(=O)(=O)c1ccc(C(=O)NC[C@@H](O)CN2CCC(Oc3ccc(Cl)c(Cl)c3)CC2)s1,> 70
9,N#Cc1cccc(OC[C@@H](O)CCN2CCC(Oc3ccc(Cl)c(Cl)c3)CC2)c1,> 70
10,COc1cc(C(=O)NC[C@@H](O)CN2CCC(Oc3ccc(Cl)c(Cl)c3)CC2)ccc1N,> 70
11,CS(=O)(=O)c1ccccc1C(=O)NCC(O)CNC1CCN(Cc2ccc(Cl)c(Cl)c2)CC1 (centres undefined),> 70

# Tested on: not listed separately
# Experiment: in vivo
# Details: rat
# Remark: another data set of the same source
row,Compound,half-life [min]
1,COc1cc(C(=O)NC[C@@H](O)CN2CCC(Oc3ccc(Cl)c(Cl)c3)CC2)ccc1N,390
2,CS(=O)(=O)c1ccccc1C(=O)NCC(O)CNC1CCN(Cc2ccc(Cl)c(Cl)c2)CC1 (centres undefined),138

# Tested on: not listed separately
# Experiment: in vitro
# Details: rat, hepatocytes
row,Compound,hepatocyte CLint [µL/min/1e6 cells]
1,CS(=O)(=O)c1ccccc1C(=O)NC[C@@H](O)CN1CCC(Oc2ccc(Cl)c(Cl)c2)CC1,< 3
2,O=C(NC[C@@H](O)CN1CCC(Oc2ccc(Cl)c(Cl)c2)CC1)c1cn2cc(F)ccc2n1,7
3,CS(=O)(=O)c1ccc(C(=O)NC[C@@H](O)CN2CCC(Oc3ccc(Cl)c(Cl)c3)CC2)s1,3
4,COc1cc(C(=O)NC[C@@H](O)CN2CCC(Oc3ccc(Cl)c(Cl)c3)CC2)ccc1N,6
5,CS(=O)(=O)c1ccccc1C(=O)NCC(O)CNC1CCN(Cc2ccc(Cl)c(Cl)c2)CC1 (centres undefined),4

# Tested on: not listed separately
# Experiment: in vitro
# Details: human, hepatocytes
row,Compound,hepatocyte CLint [µL/min/1e6 cells]
1,CS(=O)(=O)c1ccccc1C(=O)NC[C@@H](O)CN1CCC(Oc2ccc(Cl)c(Cl)c2)CC1,< 2
2,COc1cc(C(=O)NC[C@@H](O)CN2CCC(Oc3ccc(Cl)c(Cl)c3)CC2)ccc1N,< 2

# Target: Histamine H1 receptor (Homo sapiens, UniProt P35367)
# Experiment: Displacement of [3H]-pyrilamine from human histamine H1 receptor expressed in recombinant CHOK1 cells after 1 hr
# Format: cell-based, CHO-K1
# Details: not given
# Sequence of Histamine H1 receptor (P35367 whole entry): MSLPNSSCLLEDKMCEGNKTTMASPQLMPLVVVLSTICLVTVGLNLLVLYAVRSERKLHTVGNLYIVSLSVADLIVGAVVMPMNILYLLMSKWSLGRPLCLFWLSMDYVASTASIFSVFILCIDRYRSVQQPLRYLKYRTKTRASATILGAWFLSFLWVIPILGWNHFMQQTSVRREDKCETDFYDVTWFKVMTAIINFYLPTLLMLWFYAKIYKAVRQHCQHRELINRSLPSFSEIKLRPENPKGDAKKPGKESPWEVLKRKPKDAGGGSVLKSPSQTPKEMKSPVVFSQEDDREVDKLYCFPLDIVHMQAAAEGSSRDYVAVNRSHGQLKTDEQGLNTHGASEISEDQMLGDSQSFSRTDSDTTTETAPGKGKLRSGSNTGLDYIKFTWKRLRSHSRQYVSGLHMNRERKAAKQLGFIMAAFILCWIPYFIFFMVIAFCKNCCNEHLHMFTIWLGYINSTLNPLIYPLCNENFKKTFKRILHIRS
row,Compound,pKi
1,CS(=O)(=O)c1ccccc1C(=O)NC[C@@H](O)CN1CCC(Oc2ccc(Cl)c(Cl)c2)CC1,6.70
2,O=C(NC[C@@H](O)CN1CCC(Oc2ccc(Cl)c(Cl)c2)CC1)c1n[nH]c2ccccc12,8.10
3,N#Cc1cccc(C(=O)NC[C@@H](O)CN2CCC(Oc3ccc(Cl)c(Cl)c3)CC2)c1,7.70
4,O=C(NC[C@@H](O)CN1CCC(Oc2ccc(Cl)c(Cl)c2)CC1)c1cn2cc(F)ccc2n1,7.80
5,N#Cc1cccc(OCCCN2CCC(Oc3ccc(Cl)c(Cl)c3)CC2)c1,7.90
6,CS(=O)(=O)c1ccc(C(=O)NC[C@@H](O)CN2CCC(Oc3ccc(Cl)c(Cl)c3)CC2)s1,7.00
7,N#Cc1cccc(OC[C@@H](O)CCN2CCC(Oc3ccc(Cl)c(Cl)c3)CC2)c1,9.50
8,COc1cc(C(=O)NC[C@@H](O)CN2CCC(Oc3ccc(Cl)c(Cl)c3)CC2)ccc1N,7.20
9,CS(=O)(=O)c1ccccc1C(=O)NCC(O)CNC1CCN(Cc2ccc(Cl)c(Cl)c2)CC1 (centres undefined),5.90

# Target: C-C chemokine receptor type 3 (Homo sapiens) (UniProt P51677)
# Experiment: Displacement of radioligand from human CCR3 expressed in recombinant CHOK1 cells at 1 uM after 1 hr
# Details: CHO-K1
row,Compound,inhibition [%]
1,CS(=O)(=O)c1ccccc1C(=O)NC[C@@H](O)CN1CCC(Oc2ccc(Cl)c(Cl)c2)CC1,> 70
2,O=C(NC[C@@H](O)CN1CCC(Oc2ccc(Cl)c(Cl)c2)CC1)c1n[nH]c2ccccc12,> 70
3,N#Cc1cccc(C(=O)NC[C@@H](O)CN2CCC(Oc3ccc(Cl)c(Cl)c3)CC2)c1,> 70
4,O=C(NC[C@@H](O)CN1CCC(Oc2ccc(Cl)c(Cl)c2)CC1)c1cn2cc(F)ccc2n1,> 70
5,CN(C[C@@H](O)CN1CCC(Oc2ccc(Cl)c(Cl)c2)CC1)C(=O)c1c[nH]c(=O)c2ccccc12,> 70
6,CS(=O)(=O)c1ccc(C(=O)NC[C@@H](O)CN2CCC(Oc3ccc(Cl)c(Cl)c3)CC2)s1,> 70
7,N#Cc1cccc(OC[C@@H](O)CCN2CCC(Oc3ccc(Cl)c(Cl)c3)CC2)c1,> 70
8,COc1cc(C(=O)NC[C@@H](O)CN2CCC(Oc3ccc(Cl)c(Cl)c3)CC2)ccc1N,> 70

# Tested on: not listed separately
# Experiment: in vivo
# Details: rat
# Remark: another data set of the same source
row,Compound,clearance [mL/min/kg]
1,COc1cc(C(=O)NC[C@@H](O)CN2CCC(Oc3ccc(Cl)c(Cl)c3)CC2)ccc1N,56
2,CS(=O)(=O)c1ccccc1C(=O)NCC(O)CNC1CCN(Cc2ccc(Cl)c(Cl)c2)CC1 (centres undefined),54

# Tested on: not listed separately
# Experiment: in vitro
# Details: rat, liver microsomes
row,Compound,microsomal CLint [µL/min/mg]
1,CS(=O)(=O)c1ccccc1C(=O)NC[C@@H](O)CN1CCC(Oc2ccc(Cl)c(Cl)c2)CC1,8
2,O=C(NC[C@@H](O)CN1CCC(Oc2ccc(Cl)c(Cl)c2)CC1)c1cn2cc(F)ccc2n1,19
3,N#Cc1cccc(OCCCN2CCC(Oc3ccc(Cl)c(Cl)c3)CC2)c1,129
4,CS(=O)(=O)c1ccc(C(=O)NC[C@@H](O)CN2CCC(Oc3ccc(Cl)c(Cl)c3)CC2)s1,20
5,N#Cc1cccc(OC[C@@H](O)CCN2CCC(Oc3ccc(Cl)c(Cl)c3)CC2)c1,22
6,COc1cc(C(=O)NC[C@@H](O)CN2CCC(Oc3ccc(Cl)c(Cl)c3)CC2)ccc1N,18
7,CS(=O)(=O)c1ccccc1C(=O)NCC(O)CNC1CCN(Cc2ccc(Cl)c(Cl)c2)CC1 (centres undefined),< 3

# Same assay, conditions: rat, microsomes
row,Compound,microsomal CLint [µL/min/mg]
1,N#Cc1cccc(C(=O)NC[C@@H](O)CN2CCC(Oc3ccc(Cl)c(Cl)c3)CC2)c1,25

# Target: T2, C-C chemokine receptor type 3 (Homo sapiens, UniProt P51677)
# T2 sequence (P51677 whole entry): T1 sequence (whole entry)
# Experiment: Displacement of [3H]-4-(2,4-dichloro-3-methylphenoxy)-l'-[4- (methylsulfonyl)benzoyl]-l,4'-bipiperidine from human recombinant CCR3 expressed in CHOK1 cells after 2 hrs by scintillation counting analysis
# Format: cell-based, CHO-K1
# Details: not given
row,Compound,pKi
1,CS(=O)(=O)c1ccccc1C(=O)NC[C@@H](O)CN1CCC(Oc2ccc(Cl)c(Cl)c2)CC1,7.80
2,O=C(NC[C@@H](O)CN1CCC(Oc2ccc(Cl)c(Cl)c2)CC1)c1n[nH]c2ccccc12,8.80
3,N#Cc1cccc(C(=O)NC[C@@H](O)CN2CCC(Oc3ccc(Cl)c(Cl)c3)CC2)c1,7.70
4,O=C(NC[C@@H](O)CN1CCC(Oc2ccc(Cl)c(Cl)c2)CC1)c1cn2cc(F)ccc2n1,6.70
5,N#Cc1cccc(OCCCN2CCC(Oc3ccc(Cl)c(Cl)c3)CC2)c1,6.10
6,O=C(NC[C@@H](O)CN1CCC(Oc2ccc(Cl)c(Cl)c2)CC1)n1c(=O)[nH]c2ccccc21,8.60
7,CN(C[C@@H](O)CN1CCC(Oc2ccc(Cl)c(Cl)c2)CC1)C(=O)c1c[nH]c(=O)c2ccccc12,8.60
8,CS(=O)(=O)c1ccc(C(=O)NC[C@@H](O)CN2CCC(Oc3ccc(Cl)c(Cl)c3)CC2)s1,6.60
9,N#Cc1cccc(OC[C@@H](O)CCN2CCC(Oc3ccc(Cl)c(Cl)c3)CC2)c1,7.50
10,COc1cc(C(=O)NC[C@@H](O)CN2CCC(Oc3ccc(Cl)c(Cl)c3)CC2)ccc1N,8.40
11,CS(=O)(=O)c1ccccc1C(=O)NCC(O)CNC1CCN(Cc2ccc(Cl)c(Cl)c2)CC1 (centres undefined),7.10

# Tested on: not listed separately
# Experiment: physchem
# Details: octanol/water
row,Compound,logD
1,CS(=O)(=O)c1ccccc1C(=O)NC[C@@H](O)CN1CCC(Oc2ccc(Cl)c(Cl)c2)CC1,2.3
2,O=C(NC[C@@H](O)CN1CCC(Oc2ccc(Cl)c(Cl)c2)CC1)c1n[nH]c2ccccc12,2.9
3,N#Cc1cccc(C(=O)NC[C@@H](O)CN2CCC(Oc3ccc(Cl)c(Cl)c3)CC2)c1,3.5
4,O=C(NC[C@@H](O)CN1CCC(Oc2ccc(Cl)c(Cl)c2)CC1)c1cn2cc(F)ccc2n1,3.3
5,N#Cc1cccc(OCCCN2CCC(Oc3ccc(Cl)c(Cl)c3)CC2)c1,> 4.5
6,O=C(NC[C@@H](O)CN1CCC(Oc2ccc(Cl)c(Cl)c2)CC1)n1c(=O)[nH]c2ccccc21,4.5
7,CN(C[C@@H](O)CN1CCC(Oc2ccc(Cl)c(Cl)c2)CC1)C(=O)c1c[nH]c(=O)c2ccccc12,3.2
8,CS(=O)(=O)c1ccc(C(=O)NC[C@@H](O)CN2CCC(Oc3ccc(Cl)c(Cl)c3)CC2)s1,2.9
9,N#Cc1cccc(OC[C@@H](O)CCN2CCC(Oc3ccc(Cl)c(Cl)c3)CC2)c1,> 4.5
10,COc1cc(C(=O)NC[C@@H](O)CN2CCC(Oc3ccc(Cl)c(Cl)c3)CC2)ccc1N,3.1
11,CS(=O)(=O)c1ccccc1C(=O)NCC(O)CNC1CCN(Cc2ccc(Cl)c(Cl)c2)CC1 (centres undefined),1.2

# Tested on: not listed separately
# Experiment: Oral bioavailability in rat
# Format: ADME, organism-based
# Details: in vivo
row,Compound,bioavailability [%]
1,COc1cc(C(=O)NC[C@@H](O)CN2CCC(Oc3ccc(Cl)c(Cl)c3)CC2)ccc1N,30

# Target: Voltage-gated inwardly rectifying potassium channel KCNH2 (Homo sapiens, UniProt Q12809)
# Experiment: not given
# Details: not given
# Sequence of Voltage-gated inwardly rectifying potassium channel KCNH2 (Q12809 whole entry): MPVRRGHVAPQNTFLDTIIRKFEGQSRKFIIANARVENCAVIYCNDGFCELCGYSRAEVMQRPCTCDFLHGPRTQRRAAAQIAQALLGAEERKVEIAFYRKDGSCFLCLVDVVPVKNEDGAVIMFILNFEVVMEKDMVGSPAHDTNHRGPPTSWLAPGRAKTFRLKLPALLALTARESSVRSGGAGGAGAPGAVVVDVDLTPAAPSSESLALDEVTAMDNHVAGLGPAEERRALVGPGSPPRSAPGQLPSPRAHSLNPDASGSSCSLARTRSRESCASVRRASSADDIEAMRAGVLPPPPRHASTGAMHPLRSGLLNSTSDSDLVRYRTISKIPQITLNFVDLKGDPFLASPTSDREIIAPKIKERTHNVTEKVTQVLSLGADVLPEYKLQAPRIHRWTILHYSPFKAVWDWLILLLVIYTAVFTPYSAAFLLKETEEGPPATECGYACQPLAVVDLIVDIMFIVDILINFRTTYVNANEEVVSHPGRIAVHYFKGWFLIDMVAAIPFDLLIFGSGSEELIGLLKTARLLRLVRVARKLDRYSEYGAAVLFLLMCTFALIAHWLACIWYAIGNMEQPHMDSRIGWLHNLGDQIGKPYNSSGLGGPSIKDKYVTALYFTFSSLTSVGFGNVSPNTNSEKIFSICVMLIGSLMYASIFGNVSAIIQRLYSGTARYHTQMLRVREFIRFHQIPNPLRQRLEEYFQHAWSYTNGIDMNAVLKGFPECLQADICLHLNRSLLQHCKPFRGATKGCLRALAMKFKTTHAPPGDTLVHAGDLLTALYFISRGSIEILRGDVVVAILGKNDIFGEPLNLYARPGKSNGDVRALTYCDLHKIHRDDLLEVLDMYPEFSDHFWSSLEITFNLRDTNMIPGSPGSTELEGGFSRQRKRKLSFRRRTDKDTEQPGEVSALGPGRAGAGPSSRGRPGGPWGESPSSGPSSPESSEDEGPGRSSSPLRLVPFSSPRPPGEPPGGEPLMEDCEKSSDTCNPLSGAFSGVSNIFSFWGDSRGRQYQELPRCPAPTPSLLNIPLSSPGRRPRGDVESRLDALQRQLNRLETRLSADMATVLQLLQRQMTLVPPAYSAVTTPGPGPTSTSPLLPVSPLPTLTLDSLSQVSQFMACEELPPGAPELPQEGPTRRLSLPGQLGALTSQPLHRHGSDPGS
row,Compound,pIC50
1,O=C(NC[C@@H](O)CN1CCC(Oc2ccc(Cl)c(Cl)c2)CC1)c1n[nH]c2ccccc12,6.60
2,O=C(NC[C@@H](O)CN1CCC(Oc2ccc(Cl)c(Cl)c2)CC1)n1c(=O)[nH]c2ccccc21,6.30
3,CN(C[C@@H](O)CN1CCC(Oc2ccc(Cl)c(Cl)c2)CC1)C(=O)c1c[nH]c(=O)c2ccccc12,5.70
4,COc1cc(C(=O)NC[C@@H](O)CN2CCC(Oc3ccc(Cl)c(Cl)c3)CC2)ccc1N,6.60

# Tested on: not listed separately
# Experiment: in vitro
# Details: human, liver microsomes
row,Compound,microsomal CLint [µL/min/mg]
1,N#Cc1cccc(OCCCN2CCC(Oc3ccc(Cl)c(Cl)c3)CC2)c1,3
2,N#Cc1cccc(OC[C@@H](O)CCN2CCC(Oc3ccc(Cl)c(Cl)c3)CC2)c1,< 3

# Same assay, conditions: human, microsomes
row,Compound,microsomal CLint [µL/min/mg]
1,N#Cc1cccc(C(=O)NC[C@@H](O)CN2CCC(Oc3ccc(Cl)c(Cl)c3)CC2)c1,4

# — ChEMBL document CHEMBL2202969, “Discovery and evolution of phenoxypiperidine hydroxyamide dual CCR3/H₁ antagonists. Part I” (Bioorg Med Chem Lett, 2012)
